# Measured values as given in article PMC10427817, “Bioactivities of β-mangostin and its new glycoside derivatives synthesized by enzymatic reactions” (Royal Society Open Science, 2023).
# Experiments:
# Salmonella enterica = assay: Anti-microbial activity assay, S. enterica; format: cell-based
# Procedure: Bacterial and fungal strains (Bacillus subtilis, Staphylococcus aureus, Lactobacillus fermentum, Escherichia coli, Pseudomonas aeruginosa, Salmonella enterica and Candida albicans) were activated on TSA (Tryptic Soy Agar) and SA (Sabouraud–4% dextrose agar) media, respectively. Before the experiment, the microbial strains were grown in the corresponding liquid media at a concentration of approximately 5 × 10^5 CFU ml^−1 for bacteria and 1 × 10^3 CFU ml^−1 for fungi. The microbial suspension (190 µl) was mixed with 10 µl of the test sample, which was serially diluted twofold, and the microplate was incubated at 37°C for 16–24 h.
# KB epidermal carcinoma = assay: MTT cytotoxicity assay, KB; format: cell-based, human; conditions: Homo sapiens, KB cell line, 72 h, mean ± s.d., three replicates
# Procedure: The cytotoxic activities against the cancer cell lines KB epidermal carcinoma, A549 lung cancer, HepG2 liver cancer and MCF-7 breast cancer, as well as the healthy cell line HEK293 embryonic kidney cells, were determined using the 3-(4,5-dimethylthiazol-2-yl)-2,5-diphenyltetrazolium bromide (MTT) assay. Briefly, cell lines were grown into log phase at 37°C, 5% CO2 in DMEM-Dulbecco's modified Eagle's medium and 10% fetal bovine serum. A concentration of 1 × 10^4–3 × 10^4 cells ml^−1 was prepared depending on the cell line used for the experiment by adding 10 µl of the sample and 190 µl of the cell suspension, followed by incubation under standard conditions. After 72 h of culture, 10 µl of MTT (5 mg ml^−1) was added and incubated for 4 h. Dimethyl sulfoxide (100 µl) was added to dissolve formazan crystals and the density was measured at 540 nm using a BioTek spectrophotometer. The inhibition of cell growth was expressed as IC50 (the half-maximal inhibitory concentration) value.
# AChE = AChE (Homo sapiens, UniProt P22303); assay: Acetylcholinesterase inhibitory activity assay; format: biochemical; conditions: AChE 0.25 IU ml^−1, ATCI/DTNB, mean ± s.d., three replicates
# AChE, sequence (P22303 32-614): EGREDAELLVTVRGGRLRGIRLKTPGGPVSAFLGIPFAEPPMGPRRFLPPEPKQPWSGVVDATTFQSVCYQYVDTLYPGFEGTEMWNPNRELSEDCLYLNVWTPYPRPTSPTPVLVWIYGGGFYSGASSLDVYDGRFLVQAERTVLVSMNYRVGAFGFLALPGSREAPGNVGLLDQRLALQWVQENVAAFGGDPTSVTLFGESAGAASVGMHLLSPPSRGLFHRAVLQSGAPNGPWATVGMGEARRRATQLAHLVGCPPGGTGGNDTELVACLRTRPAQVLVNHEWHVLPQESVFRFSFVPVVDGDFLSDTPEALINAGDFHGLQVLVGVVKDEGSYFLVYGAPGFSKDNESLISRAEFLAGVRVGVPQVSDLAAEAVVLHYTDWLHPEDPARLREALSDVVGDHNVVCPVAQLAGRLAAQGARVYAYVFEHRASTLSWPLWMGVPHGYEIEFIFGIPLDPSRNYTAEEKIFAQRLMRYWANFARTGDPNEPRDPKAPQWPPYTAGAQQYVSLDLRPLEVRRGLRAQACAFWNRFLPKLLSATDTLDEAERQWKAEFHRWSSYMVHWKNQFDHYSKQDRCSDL
# Procedure: For the assay, acetylthiocholine iodide (ATCI) was used as a substrate for the reaction and 5,5′-dithiobis-(2-nitrobenzoic acid) (DTNB) was used to measure AChE activity. The reaction (200 µl) on a 96-well plate was performed by mixing Tris–Cl buffer (pH 8.0), tested sample in a twofold serial dilution, AChE (0.25 IU ml^−1) and incubating at 25°C, 15 min before adding 2.4 mM DTNB and 2.4 mM ATCI.
# C6 cells = test system: C6 cells; design: method as in PMID 34896543; conditions: C6 glioma cells; read-out: IC50, cell survival; cited from earlier work
# [1] = test system: HeLa cervical cancer cells; design: method as in PMID 26781450; conditions: cited from earlier work
# T89G cells = test system: T89G cells; design: method as in PMID 34896543; conditions: T89G glioma cells; read-out: IC50, cell survival; cited from earlier work
compound,measurement,setting,value
COc1cc2oc3cc(O)c(OC)c(CC=C(C)C)c3c(=O)c2c(O)c1CC=C(C)C [β-mangostin],IC50,Salmonella enterica,> 32 µg/mL
same,MIC,Salmonella enterica,> 32 µg/mL
same,IC50,KB epidermal carcinoma,21.1 ± 9.9 µM
same,IC50,AChE,2.17 ± 0.18 µM
same,IC50,C6 cells,4.8 µM
same,IC50,[1],27.2 µM
same,IC50,T89G cells,10.3 µM
